{"source": "patent US20240115715A1", "about": "“PHARMACEUTICAL COMPOSITIONS FOR VAPORIZATION AND INHALATION” (GROW BIOTECH PLC, priority 2022, published 2024)", "assay": "Thermogravimetric analysis (TGA) / DSC of API vaporisation from crosslinked β-cyclodextrin micro sponge complex under nitrogen purge", "type": "physicochemical", "description": "Differential scanning calorimetry (“DSC”) and thermogravimetric analysis (“TGA”) was performed on a Netzsch STA 409PC/PG with Infrared (“IR”) analysis of the volatiles under a purge of nitrogen gas. TGA was completed at a temperature of 250° C.\nThe suitability of an API for vaping from the insoluble β-cyclodextrin micro sponge, or from other crosslinked polysaccharide micro sponges, can be tested using TGA. When TGA is applied, a sample of API bound with the insoluble β-cyclodextrin micro sponge is heated at a constant rate, simulating the heat used in a vaporisation device. The sample is kept under a constant flow of nitrogen gas, simulating the inhalation of the user, drawing volatile compounds away from the heated sample.\nVaporization kinetics refer to the rate of dissociation of the API as vapour from the micro sponge, as determined by TGA."}
{"smiles": "C=C(C)[C@@H]1CCC(C)=C[C@H]1c1c(O)cc(CCCCC)cc1O", "note": "[CBD, cannabidiol]", "values": [{"measurement": "onset temperature of vaporisation of CBD (TGA)", "setting": "Example I, ramp rate 10° C. min^-1", "result": 160, "unit": "°C"}]}
{"smiles": "CCCCCc1cc(O)c(C/C=C(\\C)CCC=C(C)C)c(O)c1", "note": "[CBG, cannabigerol]", "values": [{"measurement": "onset temperature of vaporisation of API (TGA)", "setting": "Examples II, IV, V, VI, ramp rate 5° C. min^-1", "result": 190, "unit": "°C"}]}
{"smiles": "CCCCCc1cc(O)c(C/C=C(\\C)CCC=C(C)C)c(O)c1C(=O)O", "note": "[CBGA, cannabigerolic acid]", "values": [{"measurement": "onset temperature of vaporisation of CBG following decarboxylation from CBGA (TGA)", "setting": "Example III, ramp rate 5° C. min^-1", "result": 190, "unit": "°C"}]}
